# Key:
# Test in all cases: relative viability (nuclei count vs DMSO), 5 days (fraction); higher = more cells survive
# [1] = compound: C1=CC2=C(C=C(C(=C2N=C1)O)N=NC3=CC4=C(C=C3)C=C(C=C4)S(=O)(=O)O)S(=O)(=O)O + Nc1ncn([C@H]2C[C@H](O)[C@@H](CO)O2)c(=O)n1 [Decitabine] (partner 2 µM)
# Method in brief: (§1)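 Values are medians from duplicate plates. Each reflects relative viability, defined as the nuclei count of treated wells over that of vehicle wells. Lung cancer cell lines in 1536-well plates were pin-tool dosed one day after seeding with one drug alone or with a fixed anchor-drug dose plus five library-drug doses (not always all listed) in √10 steps, then fixed, stained and imaged at 4× after 5 days.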
# AT-7519 + Navitoclax = compound: O=C(NC1CCNCC1)c1n[nH]cc1NC(=O)c1c(Cl)cccc1Cl [AT-7519] + CC1(C)CCC(c2ccc(Cl)cc2)=C(CN2CCN(c3ccc(C(=O)NS(=O)(=O)c4ccc(N[C@H](CCN5CCOCC5)CSc5ccccc5)c(S(=O)(=O)C(F)(F)F)c4)cc3)CC2)C1 [Navitoclax] (partner 0.5 µM)
# Method in brief: as §1
# AT-7519 + Decitabine = compound: O=C(NC1CCNCC1)c1n[nH]cc1NC(=O)c1c(Cl)cccc1Cl [AT-7519] + Nc1ncn([C@H]2C[C@H](O)[C@@H](CO)O2)c(=O)n1 [Decitabine] (partner 2 µM)
# Method in brief: as §1
# [2] = compound: C1=CC2=C(C=C(C(=C2N=C1)O)N=NC3=CC4=C(C=C3)C=C(C=C4)S(=O)(=O)O)S(=O)(=O)O + COc1cc2c(Oc3ccc(NC(=O)C4(C(=O)Nc5ccc(F)cc5)CC4)cc3F)ccnc2cc1OCCCN1CCOCC1 [Foretinib] (partner 0.25 µM)
# Method in brief: as §1
Cell Line,relative viability ([1]; first compound 0.08 µM),relative viability ([1]; first compound 0.253 µM),relative viability ([1]; first compound 0.8 µM),relative viability ([1]; first compound 2.53 µM),relative viability ([1]; first compound 8 µM),relative viability (AT-7519 + Navitoclax; first compound 0.01 µM),relative viability (AT-7519 + Navitoclax; first compound 0.03162 µM),relative viability (AT-7519 + Navitoclax; first compound 0.3162 µM),relative viability (AT-7519 + Navitoclax; first compound 1 µM),relative viability (AT-7519 + Decitabine; first compound 0.01 µM),relative viability (AT-7519 + Decitabine; first compound 0.03162 µM),relative viability (AT-7519 + Decitabine; first compound 0.3162 µM),relative viability (AT-7519 + Decitabine; first compound 1 µM),relative viability ([2]; first compound 0.08 µM),relative viability ([2]; first compound 0.253 µM),relative viability ([2]; first compound 0.8 µM),relative viability ([2]; first compound 2.53 µM),relative viability ([2]; first compound 8 µM)
201T,0.887,0.848,0.873,0.87,0.845,1.19,1.17,1.27,1.25,0.915,0.853,0.831,0.862,1.21,1.14,1.15,1.15,1.05
A549,0.4,0.252,0.286,0.231,0.207,1.18,1.25,1.15,0.837,0.233,0.22,0.28,0.251,1.06,0.954,0.929,0.928,0.928
A-427,0.558,0.554,0.534,0.547,0.551,0.973,0.899,1.01,0.599,0.539,0.508,0.604,0.53,0.986,1.06,1.01,1.08,1.03
ABC-1,1.14,1.16,0.936,1.39,1.09,,,,,1.22,1.08,0.859,0.926,1.19,1.02,0.915,1.27,0.374
BEN,0.735,0.745,0.635,0.804,0.688,0.0644,0.0591,0.069,0.0528,0.754,0.663,0.771,0.744,0.489,0.521,0.732,0.686,0.429
CAL-12T,,,,,,1.21,1.05,0.855,0.128,,,,,1.08,1.25,1.12,1.06,0.772
COR-L23,0.495,0.448,0.421,0.508,0.407,1.24,1.15,0.774,0.138,0.455,0.465,0.388,0.197,1.01,0.961,1.02,1.06,0.995
COR-L 105,0.711,0.705,0.65,0.647,0.567,0.766,0.721,0.644,0.347,0.687,0.682,0.608,0.351,0.961,0.94,1.03,1.02,0.886
Calu-6,,,,,,1.09,0.89,0.901,0.115,,,,,0.887,0.846,0.92,0.886,0.912
ChaGo-K-1,0.54,0.534,0.532,0.439,0.528,0.971,1.39,0.726,0.982,0.534,0.526,0.519,0.461,0.953,0.986,0.855,1.02,0.927
EBC-1,,,,,,0.368,0.347,0.329,0.159,,,,,0.1,0.106,0.104,0.0986,0.0948
EKVX,0.334,0.366,0.366,0.325,0.263,0.772,0.881,0.923,0.876,0.331,0.303,0.57,0.463,0.818,0.712,0.797,0.861,0.272
EMC-BAC-2,1.03,0.991,0.953,1.05,0.98,0.89,1.02,1.05,1.18,0.93,0.924,0.935,0.692,1.07,0.987,1.04,1.07,0.842
EPLC-272H,0.415,0.372,0.37,0.438,0.375,1.13,1.01,1.31,0.972,0.367,0.322,0.387,0.298,0.779,0.752,0.704,0.646,0.723
H3255,0.652,0.635,0.58,0.655,0.585,0.463,0.491,0.647,0.431,0.721,0.58,0.573,0.57,0.693,0.851,0.835,0.916,0.628
HARA,0.69,0.584,0.52,0.519,0.563,1.07,1.12,1.12,0.97,0.526,0.531,0.819,0.441,1.23,0.896,0.914,0.901,0.821
HCC-15,0.723,0.689,0.637,0.625,0.596,0.632,0.639,0.647,0.351,0.59,0.567,0.498,0.441,1.15,0.972,0.936,1.07,0.985
HCC-44,0.935,0.932,0.93,1.04,0.949,1.01,0.86,0.997,0.958,0.928,0.95,0.978,1.04,,,,,
HCC-78,0.796,0.671,0.756,0.708,0.589,0.743,0.664,0.901,0.685,0.688,0.704,0.696,0.626,0.608,0.571,0.525,0.563,0.3
HCC-366,0.299,0.307,0.347,0.357,0.358,1.07,1.16,1.07,0.672,0.324,0.31,0.336,0.215,0.927,0.92,0.891,0.964,0.851
HCC-827,0.402,0.311,0.297,0.342,0.306,0.991,1.1,0.996,0.995,0.337,0.347,0.355,0.3,1.12,0.955,0.995,1.05,1.08

Cell Line,relative viability ([1]; first compound 0.08 µM),relative viability ([1]; first compound 0.253 µM),relative viability ([1]; first compound 0.8 µM),relative viability ([1]; first compound 2.53 µM),relative viability ([1]; first compound 8 µM),relative viability (AT-7519 + Navitoclax; first compound 0.01 µM),relative viability (AT-7519 + Navitoclax; first compound 0.03162 µM),relative viability (AT-7519 + Navitoclax; first compound 0.3162 µM),relative viability (AT-7519 + Navitoclax; first compound 1 µM),relative viability (AT-7519 + Decitabine; first compound 0.01 µM),relative viability (AT-7519 + Decitabine; first compound 0.03162 µM),relative viability (AT-7519 + Decitabine; first compound 0.3162 µM),relative viability (AT-7519 + Decitabine; first compound 1 µM),relative viability ([2]; first compound 0.08 µM),relative viability ([2]; first compound 0.253 µM),relative viability ([2]; first compound 0.8 µM),relative viability ([2]; first compound 2.53 µM),relative viability ([2]; first compound 8 µM)
HOP-62,0.186,0.206,0.24,0.254,0.228,0.824,0.983,1.01,0.923,0.224,0.203,0.217,0.23,1.23,1.03,1.13,1.15,1.04
IA-LM,,,,,,0.917,0.865,0.69,0.435,,,,,1.3,1.01,1.1,1.18,1.12
LC-2-ad,0.909,0.744,0.834,0.808,0.812,0.312,0.487,0.367,0.214,0.789,0.765,0.838,0.737,1.13,0.874,0.966,0.906,0.865
LCLC-97TM1,0.217,0.29,0.198,0.25,0.204,0.637,0.31,0.461,0.398,0.281,0.207,0.196,0.169,0.938,0.932,0.865,0.93,0.986
LCLC-103H,0.811,0.774,0.655,0.744,0.732,,,,,0.785,0.669,0.707,0.653,0.87,0.852,0.684,0.749,0.747
LK-2,0.417,0.254,0.201,0.384,0.296,0.76,0.75,0.77,0.745,0.23,0.276,0.298,0.266,1.33,1.3,0.899,0.911,1.37
LOU-NH91,0.865,0.791,0.834,0.791,0.841,0.668,0.629,0.693,0.525,0.761,0.791,0.795,0.739,0.974,0.946,0.93,0.917,1.01
LU99A,0.91,0.818,0.767,0.838,0.705,0.846,0.782,0.745,0.382,0.953,0.843,0.791,0.484,0.958,0.812,0.684,0.913,0.732
LXF-289,0.412,0.383,0.395,0.371,0.31,0.984,1.07,1,0.917,0.383,0.377,0.333,0.375,1.09,0.987,0.998,0.974,0.914
NCI-H358,0.245,0.216,0.218,0.203,0.132,,,,,0.202,0.193,0.198,0.112,0.778,0.61,0.635,0.651,0.884
NCI-H522,0.561,0.644,0.689,0.683,0.6,,,,,0.648,0.588,0.662,0.644,,,,,
NCI-H650,0.324,0.354,0.329,0.317,0.31,,,,,0.387,0.281,0.335,0.274,1.13,1.07,1.01,1.02,1.06
NCI-H661,0.566,0.446,0.58,0.551,0.573,,,,,0.568,0.538,0.534,0.254,1.12,0.989,0.981,1.08,1.04
NCI-H1299,,,,,,1.12,1.02,1.08,1.24,,,,,1.17,1.04,1.04,1.09,1.06
NCI-H1563,,,,,,,,,,,,,,1.04,1.02,0.91,0.996,0.895
NCI-H1648,,0.525,,,0.551,,,,,0.427,,0.438,0.445,,,,,
NCI-H1703,,,,,,0.956,1.01,1.01,0.225,,,,,0.334,,0.356,0.363,0.302
NCI-H1792,0.627,0.483,0.508,0.5,0.473,0.406,0.552,0.642,0.752,0.405,0.488,0.495,0.54,,,,,
NCI-H2228,,,,,,1.08,0.72,1.04,0.437,,,,,0.902,0.826,0.87,0.878,0.923
NCI-H2342,0.793,0.705,0.724,0.806,0.705,,,,,0.709,0.61,0.701,0.631,1.22,1.1,1.15,1.11,1.05
SW 900,0.442,0.412,0.448,0.473,0.538,,,,,0.437,0.435,0.422,0.32,0.806,0.9,0.912,0.786,0.741
